Reference: patent US20010005714A1, “AMPHIPATHIC MOLECULES AS CHOLESTEROL AND OTHER LIPID UPTAKE INHIBITORS” (priority 1996, published 2001)

Assays:
[1] = system: abetalipoproteinemic BBMV; assay: [14C]Cholesterol uptake from egg PC vesicles by abetalipoproteinemic BBMV; format: biochemical, human; details: donor egg PC vesicles 0.01 mg lipid/ml, acceptor abetalipoproteinemic BBMV 0.25 mg lipid/ml; read-out: Inhibition IC50: concentration required to reduce protein-mediated cholesterol uptake by 50%
Experimental: (§1) Biopsy samples from human duodenum, 20 to 30 mg of wet tissue each, were suspended in 200 μl buffer (12 mM Tris HCl pH 7.2, 300 mM mannitol, 5 mM EGTA, 1 mM phenylmethylsulfonyl fluoride), frozen in liquid nitrogen and stored at −80° C. prior to use. BBMV were prepared by Mg^+2 precipitation (Hauser et al, Biochim. Biophys. Acta 602 567-577 (1980)) as described in detail by Booth et al (Lancet 1 1066-1069 (1985)). Proteinase K treatment of the BBMV was carried out according to Thurnhofer and Hauser (Biochim. Biophys. Acta 1024 249-262 (1990)). […] Small unilamellar phesrholipid vesicles were prepared by tip sonication (Schulthess, Biochemistry 33 4500-4508 (1994)). […]
(§2) Kinetic measurements were also carried out in the presence of inhibitors; synthetic peptides or apolipoproteins were added to the […] of donor and acceptor vesicles. Cholesterol uptake by native and proteinase K treated BBMV was determined in the presence of increasing concentrations of Ac-18A-NH2, the difference between cholesterol uptake by native and proteinase K treated BBMV is referred as protein-mediated cholesterol uptake in FIG. 6. The IC50 values were determined according to Methods Enzymol. […]

BBMVs = assay: Inhibition of cholesteryl oleate uptake by BBMVs by peptides of varying lengths (Example 8); format: biochemical; details: 120 μg peptide/ml
Experimental: going from one peptide to the other (top→bottom) 3 amino acids were removed from the N-terminus. The inhibitory effect of the four peptides listed above were compared at 120 μg peptide/ml. The lipid uptake by BBMVs was measured in the presence of 120 μg peptide/ml each as described below.
Donor and acceptor particles dispersed in Tris/NaCl buffer were centrifuged in a Beckman airfuge at 115000 g is for 2 min at 4° C. The dispersion of the acceptor yielded a pellet which was resuspended in Tris/NaCl buffer. Varying amounts of inhibitor dissolved in the same buffer were added to the acceptor dispersion and at time zero the dispersiorn of acceptor with or without inhibitor was mixed with the top 80% of the supernatant obtained by centrifugation of the donor dispersion. The final concentration of the donor was 0.05 mg total lipid/ml and that of the acceptor was 5 mg protein/ml. The resulting dispersion was incubated at 23° C. and after timed intervals the sterol uptake was stopped by dilution of the incubation medium with 2 volumes of Tris/NaCl buffer. BBMV were separated from the donor by centrifugation in the Beckman airfuge at 115000 g for 2 min at 4° C. The radioactivities in the supernatant containing the donor and in the pellet containing the BBMV (acceptor) were determined in a Beckman LS 7500 scintillation counter.

[2] = [14C]Cholesterol transfer from egg PC vesicles to egg PC/egg PA vesicles; format: biochemical
Experimental: (II) Similarly, egg PC small unilamellar vesicles containing 1 mol % [^14C] cholesterol as the donor and small unilamellar vesicles of egg PC/egg PA (85:15, mole ratio) as the acceptor were incubated at room temperature. After timed intervals aliquots of the incubation mixture were filtered through DEAE Sepharose C1-CB columns, which retained the negatively charged vesicles. Pure egg PC vesicles were eluted and their radioactivity determined.
(§3) Kinetic measurements were also carried out in the presence of inhibitors; synthetic peptides or apolipoproteins were added to the […] of donor and acceptor vesicles. Cholesterol uptake by native and proteinase K treated BBMV was determined in the presence of increasing concentrations of Ac-18A-NH2, the difference between cholesterol uptake by native and proteinase K treated BBMV is referred as protein-mediated cholesterol uptake in FIG. 6. The IC50 values were determined according to Methods Enzymol. 37 3-22 (1975).

normal human BBMV = assay: [14C]Cholesterol uptake from egg PC vesicles by normal human duodenal BBMV; format: biochemical
Experimental: Biopsy samples from human duodenum, 20 to 30 mg of wet tissue each, were suspended in 200 μl buffer (12 mM Tris HCl pH 7.2, 300 mM mannitol, 5 mM EGTA, 1 mM phenylmethylsulfonyl fluoride), frozen in liquid nitrogen and stored at −80° C. prior to use. BBMV were prepared by Mg^+2 precipitation (Hauser et al, Biochim. Biophys. Acta 602 567-577 (1980)) as described in detail by Booth et al (Lancet 1 1066-1069 (1985)). Proteinase K treatment of the BBMV was carried out according to Thurnhofer and Hauser (Biochim. Biophys. Acta 1024 249-262 (1990)). […] Small unilamellar phesrholipid vesicles were prepared by tip sonication (Schulthess, Biochemistry 33 4500-4508 (1994)).
(I) Egg PC small unilamellar vesicles containing […] (^14C] cholesterol and BBMV both dispersed in 10 mM Tris-HCl pH 7.2, 0.15 M NaCl, 5 mM EDTA were incubated at room temperature. After timed intervals phospholipid vesicles and BBMV were separated by centrifugation at 115000 g for 2 min in a Beckman airfuge. The radioactivities present in pellet and supernatant were determined by counting aliquots in a Beckman LS 7500 liquid scintillatior counter. Fusion of egg PC small unilamellar vesicles and BBMV as a possible mechanism of cholesterol uptake was ruled out as discussed in detail in previous studies (Thurnhofer and Hauser, Biochemistry 29 2142-2148 (1990); Compassi, Biochemistry 34 16473-16482 (1995) and Schulthess, J. Lipid. Res. 37 2405-2419 (1996)).
The experimental data were computer-fitted using the following equation valid for single-exponential exchange reactions: X=X∞+[XO−X∞]e^-k1^[(a+b)/a]t, where XO, X and X∞represent the fractions of the labelled lipid in the donor at times 0, t and at equilibrium, respectively. K1 is the pseudo-first-order rate constant of the reaction and a and b are the lipid pools of acceptor and donor, respectively (McKay, Nature 142 997-998 (1938) and Mutsch et al, Biochemistry 25 2134-2140 (1986).
as §3

[3] = molecular target: proteinase K-treated normal BBMV; assay: [14C]Cholesterol uptake from egg PC vesicles by proteinase K-treated normal BBMV; format: biochemical, human
Experimental: as §1, §2

[4] = system: brush border membrane vesicles (BBMV); assay: IC50 of cholesteryl oleate uptake at the brush border membrane (Example 6); format: biochemical, rabbit; details: donor 0.1 mg total lipid/ml, acceptor 2 mg protein/ml; 20 min at 25° C.
Experimental: An appropriate amount of inhibitor dissolved in 84.5 μl buffer (0.05 M Tris pH 7.4, 0.15 M NaCl) is mixed in an Eppendorf tube at time zero with 5 μl of a dispersion of donor and 10.5 μl of a dispersion of acceptor (i.e. brush border membrane vesicles (BBMV)) in the same buffer. The final concentration of the donor vesicles was 0.1 mg total lipid/ml, that of the acceptor was 2 mg protein/ml. The resulting mixture was incubated for 20 min at 25° C., and the reaction was stopped by adding 60 μl of the incubation medium to 120 μl ice-cold bufferin an airfuge tube. The diluted dispersion was immediately centrifuiaed in the airfuge at […] for 2 min. at 4° C. to separate donor vesicles from BBMV. Two 60 μl aliquots of the donor (=supernatant) were counted in a Beckman LS-7500 liquid scintillating counter to determine the radioactivity remaining in tbe donor.
Small unilamellar egg phosphatidycholine (PC) vesicles containing 1 mol % of cholesterol oleate and a trace amount of ^3H-cholesterol oleyl ether were made by dissolving the appropriate amounts of the lipids in CHCl3/CH3OH, (2:1, by vol.), taking the solution to dryness on a rotary evaporator and drying the residue in vacuo. The dried lipid film was dispersed in the appropriate volume of buffer by hand-shaking. The lipid dispersion was subjected to tip sonication as described in Brunner et al, J. Biol. Chem. 253 7538-7546 (1978). The resulting donor dispersion in buffer was centrifuged in the airfuge at 100000 g for 2 min at […]. Only the top 80% of the donor dispersion after centrifugation was used in the lipid uptake experiment.
BBMV were prepared from frozen rabbit small intestine according to Hauser et al (Biochim. Biophys. Acta 602 567-577 (1980)). Prior to use in the uptake experiment determining IC50 values the BBMV were washed to remove any free protein liberated from the BBM. To this end the BBMV dispersion was diluted with buffer 1:1 in an airfuge tube, and the diluted dispersion was centrifuged in the airfuga at 100000 g for 2 min at […]. The supernatant was is carefully decanted, the pellet was resuspended in buffer to the original volume of the BBMV dispersion, and the dispersion was homogenized. […]

IC50 [1]: 23 ± 3 µM
Inhibition IC50 ([2]; donor egg PC vesicles 0.01 mg lipid/ml, acceptor egg PC/egg PA vesicles 0.25 mg lipid/ml): no inhibition
Inhibition IC50 ([3]; donor egg PC vesicles 0.01 mg lipid/ml, acceptor proteinase K-treated normal BBMV 0.25 mg lipid/ml): no inhibition
inhibitory effect on cholesterol uptake (in words) ([3]; proteinase K-treated BBMV): no inhibitory effect
IC50 [4]: 16 ± 1 µM
IC50 (μg/mL) of cholesteryl oleate uptake at the brush border membrane [4]: 35 ± 2 µg/mL
Substance: Ac-Asp-Trp-Leu-Lys-Alα-Phe-Tyr-Asp-Lys-Val-Alα -Glu-Lys-Leu-Lys-Glu-Alα-Phe-NH2 [Ac-18A-NH2, amphipathic α-helix of class A peptide, N-acetylated and C-amidated 18A]
inhibitory effect on cholesteryl oleate uptake (in words, footnote) (BBMVs): Useful inhibitory effect is seen with Peptides Nos. 1 and 2.
Inhibition of Cholesteryloleate Uptake In. % (BBMVs; donor 0.05 mg total lipid/ml, acceptor 5 mg protein/ml, 23° C.): 100%
inhibitory effect on cholesterol transfer between phospholipid vesicles (in words) [2]: no inhibitory effect
effect on passive cholesterol transfer (in words) (normal human BBMV): no inhibitory effect
half time of residual cholesterol uptake by native BBMV not inhibited by the peptide (normal human BBMV; 60 μM Ac-18A-NH2): 6.7 ± 1.4 h
IC50 (normal human BBMV; donor egg PC vesicles 0.01 mg lipid/ml, acceptor normal human BBMV 0.25 mg lipid/ml, 20 min, read-out: Inhibition IC50: concentration required to reduce protein-mediated cholesterol uptake by 50%): 23 ± 1 µM
inhibition of protein-mediated cholesterol uptake (in words) (normal human BBMV; human duodenal BBMV): effectively and completely inhibited
